pIC50: −log10 of the molar value.
What was measured:
Type in all cases: cell-based, human
SUIT2 SAMHD1 KO cells [1] = test: Cell Titer Glo proliferation, SUIT2 SAMHD1 knockout; details: 72 h
Procedure: (§1) For CellTiter-Glo analysis cells were plated at 1×10^3 cells/well in 50 μl/well in white opaque 384-well plates and treated as described. Following incubation 50 μl of CellTiter-Glo reagent (Diluted 1:5 in dH2O) was added to each well, plates incubated at room temperature for 5 m and luminescence was measured using a BioTek microplate luminescence reader. Proliferation rate normalized growth inhibition was calculated using the previously described GR metric (Hafner et al., 2016).

MOLT-4 cells = test: Cell Titer Glo proliferation, MOLT-4; details: MOLT-4, 5 μM dG + 1 μM BCX-1777, 72 h
Procedure: as §1

HCC827 cells [2] = test: Cell Titer Glo proliferation, HCC827; details: for pIC50: Homo sapiens, HCC827, 72 h, +10 μM dG
Procedure: as §1

[3] = tested on: CCRF-CEM SAMHD1 over-expressing cells; test: Cell Titer Glo proliferation, CCRF-CEM SAMHD1 over-expressing
Procedure: as §1

B-ALL cell lines = test: Cell Titer Glo proliferation, B-ALL models; details: 5 μM dG + 1 μM BCX-1777, 72 h
Procedure: as §1

HCC827 cells [4] = test: Crystal violet proliferation analysis, HCC827; details: HCC827, 5 μM dG + 1 μM PNPi, 7 d
Procedure: (§2) For crystal violet staining, cells were plated in 6-well cell culture plates at 1×10^4 cells/well and treated as described. Following treatment cells were fixed by incubating in 4% PFA in PBS for 15 m at room temperature. Plates were subsequently washed with PBS and stained with 0.1% crystal violet in H2O for 15 m at room temperature.

CCRF-CEM cells [5] = test: Cell Titer Glo proliferation, CCRF-CEM (YFP control)
Procedure: as §1

SUIT2 cells [6] = test: Immunoblot analysis, SUIT2 wild-type; details: SUIT2 parental, 5 μM dG + 1 μM forodesine, 24 h
Procedure: (§3) PBS-washed cell pellets were re-suspended in cold RIPA buffer supplemented with protease and phosphatase inhibitors. Protein lysates were normalized using BCA assay, diluted using RIPA and 4× laemmli loading dye, resolved on 4-12% Bis-Tris gels and electro-transferred to nitrocellulose membranes. After blocking with 5% nonfat milk in TBS+0.1% Tween-20 (TBS-T), membranes were incubated overnight in primary antibodies diluted (per manufacturers instructions) in 5% BSA in TBS-T. Membranes were washed with TBST-T and incubated with HRP-linked secondary antibodies prepared at a 1:2500 dilution in 5% nonfat dry milk in TBS-T. HRP was activated by incubating membranes with a mixture of SuperSignal Pico and SuperSignal Femto ECL reagents (100:1 ratio). Exposure of autoradiography film was used for detection.

[7] = tested on: SAMHD1-deficient primary melanoma cell lines; test: Propidium iodide cell cycle analysis, SAMHD1-deficient primary melanoma models; details: only SAMHD1-deficient melanoma models, 1 μM PNPi + 10 μM dG, 24 h
Procedure: (§4) Treated cells were washed with PBS and suspended in propidium iodide cell cycle staining solution (100 μg/ml propidium iodide; 20 μg/ml Ribonuclease A). 10,000 events were collected per sample. All flow cytometry data were acquired on five-laser BD LSRII, and analyzed using FlowJo software (Tree Star).

CCRF-CEM cells [8] = test: Immunoblot analysis, CCRF-CEM; details: 5 μM dG + 1 μM BCX-1777, 24 h
Procedure: as §3

T-ALL cell lines = test: Propidium iodide cell cycle analysis, T-ALL models; details: T-ALL models only, 5 μM dG + 1 μM BCX-1777, 24 h
Procedure: as §4

SUIT2 SAMHD1 KO cells [9] = test: Crystal violet proliferation analysis, SUIT2 SAMHD1 knockout; details: 7 d
Procedure: as §2

NALM6 cells [10] = test: Immunoblot analysis, NALM6; details: NALM6, 5 μM dG + 1 μM BCX-1777, 24 h
Procedure: as §3

[11] = tested on: SAMHD1-deficient primary melanoma cell lines; test: Crystal violet proliferation analysis, SAMHD1-deficient primary melanoma models; details: 1 μM PNPi + 10 μM dG, 7 d
Procedure: as §2

JURKAT cells = test: Cell Titer Glo proliferation, JURKAT
Procedure: as §1

[12] = tested on: CCRF-CEM CDA over expressing cells; test: Cell Titer Glo proliferation, CCRF-CEM CDA over-expressing; details: CCRF-CEM overexpressing CDA, 10 μM dG + 1 μM BCX-1777 + dC, 72 h
Procedure: as §1

SUIT2 SAMHD1 KO cells [13] = test: Immunoblot analysis, SUIT2 SAMHD1 knockout
Procedure: as §3

[14] = tested on: CCRF-CEM SAMHD1 over-expressing cells; test: Propidium iodide cell cycle analysis, CCRF-CEM SAMHD1 over-expressing; details: CCRF-CEM expressing SAMHD1, 5 μM dG + 1 μM BCX-1777, 24 h
Procedure: as §4

HCC827 cells [15] = test: Propidium iodide cell cycle analysis, HCC827; details: HCC827, 5 μM dG + 1 μM BCX-1777, 24 h
Procedure: as §4

SUIT2 cells [16] = test: Cell Titer Glo proliferation, SUIT2 wild-type; details: SUIT2 (SAMHD1-proficient), 72 h, +5 μM dG
Procedure: as §1

NALM6 cells [17] = test: Cell Titer Glo proliferation, NALM6; details: NALM6 (SAMHD1-proficient), 72 h, +1 μM dG
Procedure: as §1

`NC(=S)N/N=C/c1ncccc1N` [3-AP] was tested, and the “selectivity for SAMHD1 KO over WT cells” value (SUIT2 SAMHD1 KO cells [1]; SUIT2 SAMHD1 KO vs WT) was “did not extend”.

`O=c1[nH]cnc2c([C@@H]3N[C@H](CO)[C@@H](O)[C@H]3O)c[nH]c12` [Forodesine] was tested, and the “anti-proliferative effect of the combination with dG” value (“anti-proliferative effect … with dG” below) (MOLT-4 cells) was “eradicated”, the pIC50 (HCC827 cells [2]) was 7.15 and the “anti-proliferative effect of PNPi” value ([3]; CCRF-CEM expressing SAMHD1, 5 μM dG + 1 μM BCX-1777, 72 h) was “completely resistant”. The “anti-proliferative effect … with dG” value (B-ALL cell lines) was “unaffected”, the “proliferation, crystal violet” value (HCC827 cells [4]) was “proliferation inhibition” and the “proliferation with dC supplementation” value (CCRF-CEM cells [5]; CCRF-CEM YFP, 10 μM dG + 1 μM BCX-1777 + 1 μM dC, 72 h) was 60 % of control. For the same molecule, the proliferation (CCRF-CEM cells [5]; CCRF-CEM YFP, 10 μM dG + 1 μM BCX-1777, 72 h) was 1 % of control, the “anti-proliferative effect … with dG” value (CCRF-CEM cells [5]; CCRF-CEM, 5 μM dG + 1 μM BCX-1777, 72 h) was “eradicated” and the “response to PNPi (DNA damage)” value (SUIT2 cells [6]) was “completely resistant”. The cell cycle [7] was “induced cell cycle arrest”, the “DNA damage (H2AXS139 phosphorylation)” value (CCRF-CEM cells [8]) was “induced DNA damage” and the “apoptosis (cleaved caspase 3 accumulation)” value (CCRF-CEM cells [8]) was “apoptosis”. For the same molecule, the “percentage of sub-G1 cells (marker for cell death)” value (T-ALL cell lines) was “increase in the percentage of sub-G1 cells”, the “proliferation, crystal violet” value (SUIT2 SAMHD1 KO cells [9]; only SUIT2 SAMHD1 knockout cells, 5 μM dG + 1 μM PNPi) was “could be prevented” and the “DNA damage and apoptosis” value (NALM6 cells [10]) was “not in NALM6 cells”. The “proliferation, crystal violet” value [11] was “selectively inhibited proliferation”, the “anti-proliferative effect … with dG” value (JURKAT cells; JURKAT, 5 μM dG + 1 μM BCX-1777, 72 h) was “eradicated” and the “dC rescue of the anti-proliferative effect of PNPi” value [12] was “prevented this rescue”. The “DNA damage in response to PNPi” value (SUIT2 SAMHD1 KO cells [13]; SUIT2 SAMHD1 knockout, 5 μM dG + 1 μM forodesine, 24 h) was “exhibited DNA damage”, the “cytotoxic effect of PNPi” value [14] was “completely resistant” and the cell cycle (HCC827 cells [15]) was “induced cell cycle arrest”.

In the case of `Cc1cn([C@H]2C[C@H](O)[C@@H](CO)O2)c(=O)[nH]c1=O` [thymidine], the “induction of pCHEK1S345 and pH2A.XS139” value (SUIT2 SAMHD1 KO cells [13]; SUIT2 SAMHD1 KO vs WT, 100 μM dT, 24 h) was “enhanced”.

With `O=c1[nH]cnc2c(CN3C[C@H](CO)[C@@H](O)C3)c[nH]c12` [ulodesine] the “proliferation (ulodesine)” value (HCC827 cells [2]; HCC827 (SAMHD1 deficient), 72 h, +5 μM dG) was “selectively impaired the proliferation”, the pIC50 (HCC827 cells [2]) was 7.68 and the “proliferation (ulodesine)” value ([3]; CCRF-CEM overexpressing SAMHD1, 72 h, +1 μM dG) was “resistance”. For the same molecule, the “proliferation (ulodesine)” value (SUIT2 cells [16]) was “not exhibiting any activity”, the “proliferation (ulodesine)” value (CCRF-CEM cells [5]; CCRF-CEM (SAMHD1 deficient), 72 h, +1 μM dG) was “selectively impaired the proliferation” and the “proliferation (ulodesine)” value (SUIT2 SAMHD1 KO cells [1]; SUIT2 CRISPR/Cas9 SAMHD1 knockout, +5 μM dG) was “sensitive”. For the same molecule, the “proliferation (ulodesine)” value (JURKAT cells; JURKAT (SAMHD1 deficient), 72 h, +1 μM dG) was “selectively impaired the proliferation” and the “proliferation (ulodesine)” value (NALM6 cells [17]) was “not exhibiting any activity”.

With (R)-DI-82 [dCK inhibitor] the “effect of dCK inhibitor on PNPi anti-proliferative effect” value (SUIT2 SAMHD1 KO cells [9]; SUIT2 SAMHD1 knockout, 5 μM dG + 1 μM PNPi + 1 μM dCKi) was “completely blocked” and the “effect of dCK inhibitor on PNPi-induced DNA damage” value (SUIT2 SAMHD1 KO cells [13]; SUIT2 SAMHD1 knockout, 5 μM dG + 1 μM forodesine + 1 μM (R)-DI-82, 24 h) was “completely prevented”.

Reference: patent US20220211710A1, “COMPOSITIONS AND METHODS FOR TREATING CANCER WITH NUCLEOSIDE-METABOLISM MODULATORS” (The Regents of the University of California, priority 2019, published 2022)
